The text below walks through data of PubChem BioAssay (NCI).

What all share (assay): NCI-60 cell line screen, 48 h
Assay [1] concerns A498 renal.
The subject of assay [2] is ACHN renal.
Assay [3] concerns COLO 205 colon.
Assay [4] relates to HCC-2998 colon.
In assay [5] the test system is NCI-H226 lung.
The subject of assay [6] is NCI-H23 lung.
In assay [7] the test system is NCI-H522 lung.
Assay [8] concerns OVCAR-4 ovarian.
For assay [9], the system named is OVCAR-5 ovarian.
The test system of assay [10] is PC-3 prostate.

“And” between values parts separate entries of the source, which are not always exact repeats. Equal values may be shown once.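 These data come from cells grown in 96-well plates and exposed to compound for 48 hours at five concentrations. Abbreviation: GI50, concentration required for 50% inhibition of growth. TGI marks complete inhibition of growth.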

Take `C[C@H]1[C@H](C)CC[C@]2(C(=O)O)CC[C@]3(C)C(=CC[C@@H]4[C@@]5(C)C/C(=C/c6cccnc6)[C@H](O)C(C)(C)[C@@H]5CC[C@]43C)[C@H]12`: the GI50 is over 100 µM in assay [1]; 10.2 µM in assay [2]; 14.6 µM in [3]; 15.7 µM in assay [4]; 15.3 µM in assay [5]; 17.4 µM in assay [6]. In addition, the GI50 in assay [7] was 13 µM; in assay [8], 43 µM; in [9] it was 20.9 µM; in assay [10], 6.35 µM. Further, the TGI in assay [1] was over 100 µM; in [2] it was over 100 µM; in assay [3], 32.4 µM; in assay [4], 43.5 µM; in assay [5] it was 56.8 µM; in [6], over 100 µM. Further, the TGI in assay [7] is 94.3 µM; in assay [8], over 100 µM; in assay [9], 64.8 µM; in assay [10], over 100 µM.

`CC(=O)OCC1OC(n2ccc(=O)[nH]c2=O)C(OC(C)=O)C1OC(C)=O` (stereo not given): the GI50 in [1], in [2], in assay [3], in [4], in assay [5] and in assay [6] was over 100 µM throughout. Also, the GI50 in assay [7], in assay [8], in assay [9] and in assay [10] was over 100 µM throughout. The TGI in assay [1], in assay [2], in assay [3], in assay [4], in [5] and in assay [6] was over 100 µM throughout. Also, the TGI in assay [7], in [8], in assay [9] and in [10] was over 100 µM throughout.

`C=C1C(=O)O[C@H]2[C@H]1CC/C(COC(=O)N1CCC[C@H]1C(=O)Nc1ccc(OC)c(C(N)=O)c1O)=C\CC[C@@]1(C)O[C@@H]21`: the GI50 is 9.17 µM in assay [1]; 2.9 µM in [2]; 1.6 µM in [3]; 8.61 µM in assay [4]; 2.24 µM in assay [5]; 5.44 µM in [6]. The GI50 was 1.68 µM in [7], 2.88 µM in [8], 4.41 µM in assay [9] and 4.95 µM in assay [10]. The TGI in assay [1] came out at 22.6 µM; in [2], 10.9 µM; in assay [3] it was 3.28 µM; in assay [4], 23.3 µM; in assay [5], 7.12 µM; in assay [6] it was 22.6 µM. For the same molecule, the TGI in assay [7] turned out to be 4.07 µM; in assay [8] it was 12.9 µM; in assay [9], 18.2 µM; in assay [10], 18.9 µM.

For the molecule `Fc1cccc(COc2ccc(Nc3ncnc4cc(-c5ccc[nH]5)sc34)cc2Cl)c1`, the GI50 is 2.27 µM in [1]; 2.68 µM in assay [2]; 5.47 µM in assay [3]; 0.246 µM in assay [4]; 1.7 µM in [5]; 7.22 µM in assay [6]. Besides, the GI50 in assay [7] is 1.48 µM; in [8], 0.0847 µM; in assay [9], 2.22 µM; in [10] it was 0.77 µM. The TGI in [1] is over 17.7 µM; in assay [2], over 16.8 µM; in assay [3], 17.5 µM; in assay [4], 19.2 µM; in assay [5], over 16.8 µM; in assay [6], over 25 µM. Further, the TGI is over 7.14 µM in [7], 3.84 µM in assay [8], 24.9 µM in assay [9] and over 15.7 µM in [10].

For the molecule `COc1ccc(-c2cn(-c3ccccc3)c(-c3ccccc3)n2)cc1OC`, the GI50 in assay [1] is 18.7 µM; in [2] it was 9.55 µM; in [3] it was 2.68 µM; in assay [4], 6.39 µM; in assay [5], 15 µM; in assay [6], 5.51 µM. In addition, the GI50 in [7] is 6.63 µM; in [8] it was 10.9 µM; in assay [9] it was 7.33 µM; in [10], 5.53 µM. The TGI in assay [1] is 34.8 µM; in assay [2] it was 21.4 µM; in assay [3], 12.3 µM; in assay [4] it was 20.7 µM; in assay [5] it was 40.3 µM; in [6], 25 µM. The TGI in assay [7] was 19.6 µM; in assay [8], 32.9 µM; in assay [9], 20.9 µM; in assay [10] it was 24.7 µM.

For the molecule `CC[C@H](CC#N)OC(=O)N[C@@H](C)c1cccc(NC(=O)Nc2ccc(-c3cnco3)c(OC)c2)c1`, the GI50 in assay [1] is 0.138 µM; in [2], 0.0872 µM; in [3], 0.0203 µM; in assay [4] it was 0.142 µM; in [5] it was 2 µM; in assay [6], 0.16 µM. For the same molecule, the GI50 was 0.0731 µM in [7], 14.1 µM in assay [8], 0.623 µM in assay [9] and 0.0741 µM in [10]. For the same molecule, the TGI in [1] was determined as 20.8 µM; in assay [2], 45.1 µM; in assay [3] it was 18 µM; in assay [4] it was 51.6 µM; in [5], 38.4 µM; in assay [6], 43.2 µM. In addition, the TGI in assay [7] was 15.1 µM; in [8], 71.7 µM; in assay [9] it was over 84.5 µM; in assay [10] it was 31.4 µM.

Consider `COc1cc(-c2cn(-c3ccc(Cl)cc3)c(C)c2C(=O)C(F)(F)F)cc(OC)c1OC`, for which the GI50 in assay [1] was 27.2 µM; in assay [2], over 100 µM; in [3], over 100 µM; in assay [4], over 100 µM; in [5] it was over 100 µM; in assay [6], 60.5 µM. The GI50 in [7] was 37 µM; in assay [8], 25.5 µM; in [9], over 100 µM; in assay [10] it was 13.6 µM. Moreover, the TGI in [1], in [2], in [3], in [4], in assay [5] and in assay [6] was over 100 µM each time. Besides, the TGI in assay [7], in [8], in [9] and in assay [10] was over 100 µM each time.

With `Cc1cc(C(C#N)c2ccc(Cl)cc2)c(Cl)cc1NC(=O)c1cc(I)cc(I)c1O` (stereo not given), the GI50 in [1] is 11.2 µM; in assay [2], 15.5 µM and 17.2 µM; in assay [3] it was 15.2 µM and 16.2 µM; in assay [4], 4.08 µM and 10.8 µM; in assay [5] it was 11.9 µM; in [6], 6.2 µM and 14.6 µM. The GI50 in assay [7] was 3.48 µM and 17.8 µM; in [8], 16.4 µM and 17.5 µM; in [9] it was 11 µM and 15.5 µM; in assay [10], 3.18 µM and 11.7 µM. Besides, the TGI is 29.9 µM in assay [1]; 46.1 µM and 37.1 µM in assay [2]; 28.8 µM and 29.7 µM in assay [3]; 15.4 µM and 24 µM in assay [4]; 43.4 µM in assay [5]; 21 µM and 37.3 µM in assay [6]. The TGI was 10.5 µM and 47.2 µM in assay [7]; 51.4 µM and 47.9 µM in [8]; 29.2 µM and 32 µM in [9]; 23 µM and 32.5 µM in assay [10].

For the molecule `Clc1nc(Cl)c2ncn(Cc3ccc(COc4cccc(OCc5ccc(Cn6cnc7c(Cl)nc(Cl)nc76)cc5)c4)cc3)c2n1`, the GI50 in assay [1] was 39.2 µM; in assay [2], 45.4 µM; in assay [3] it was over 100 µM; in [4], 17.9 µM; in assay [5], 21 µM; in assay [6], 71.4 µM. The GI50 in assay [7] is 61.9 µM; in assay [8], 15.1 µM; in [9], 49.8 µM; in assay [10], 24.1 µM. For the same molecule, the TGI in [1] was over 100 µM; in [2] it was over 100 µM; in assay [3], over 100 µM; in [4] it was 35.8 µM; in [5] it was 60.3 µM; in assay [6] it was over 100 µM. The TGI in assay [7], in assay [8], in [9] and in assay [10] was over 100 µM in each case.

On to `CCCCCCCCCCCCCC(=O)CBr`, for which the TGI in assay [1] is 35.5 µM; in assay [2] it was 30.1 µM; in assay [3], 30.1 µM; in assay [4] it was 32.1 µM; in [5], 35.1 µM; in [6] it was 23 µM. In addition, the TGI in assay [7] turned out to be 3.85 µM; in assay [8] it was 28.8 µM; in [9], 49.8 µM; in [10], 16.3 µM.

As for `Cc1ccc(C(O)c2cnc(C)n2Cc2ccccc2)cc1` (stereo not given), the TGI in assay [1], in assay [2], in [3], in assay [4], in assay [5] and in assay [6] was over 100 µM each time. For the same molecule, the TGI in assay [7], in [8], in [9] and in assay [10] was over 100 µM throughout.

As for `O=C1/C(=C/c2ccc(O)cc2)COc2ccc(-c3ccccc3)cc21`, the GI50 in [1] is 11.5 µM; in assay [2] it was 12.3 µM; in assay [3], 10.6 µM; in assay [4], 4.08 µM; in assay [5], 16.1 µM; in [6], 12.4 µM. For the same molecule, the GI50 is 2.93 µM in assay [7], 14.1 µM in [8], 17.8 µM in assay [9] and 5.09 µM in [10]. In addition, the TGI in [1] was determined as 23.8 µM; in assay [2], 25.1 µM; in assay [3], 33.9 µM; in assay [4], 11.2 µM; in assay [5], 39.2 µM; in assay [6], 29.6 µM. Moreover, the TGI was 16.4 µM in assay [7], 31 µM in assay [8], 33.8 µM in [9] and over 63.9 µM in assay [10].

For the molecule `C=C(C)C(=O)O[C@H]1[C@H]2[C@H](OC(=O)[C@H]2C)[C@H](O)[C@@H](C)[C@@H]2C=CC(=O)[C@]21C`, the TGI in [1] is 6.56 µM; in assay [2] it was 12.7 µM; in [3], 9.97 µM; in assay [4] it was 5.72 µM; in assay [5], 39 µM; in assay [6], 15 µM. Besides, the TGI was found to be 2.68 µM in assay [7], 19.9 µM in assay [8], 54 µM in assay [9] and 18.5 µM in assay [10].

With `CCCCN(Cc1ccc(F)cc1)c1ccc(CO)c(Cl)c1`, the GI50 in assay [1] is 0.0543 µM; in [2], 15.4 µM; in assay [3], 14 µM; in assay [4], 12.4 µM; in [5], 0.146 µM; in assay [6], 11.8 µM. Besides, the GI50 was 15 µM in assay [7], 2.54 µM in assay [8], 0.531 µM in assay [9] and 13.8 µM in assay [10]. Moreover, the TGI in assay [1] amounted to 0.208 µM; in [2], 29.7 µM; in [3], 27.2 µM; in assay [4], 26.7 µM; in [5], 0.318 µM; in assay [6] it was 26.3 µM. Besides, the TGI in assay [7] was 30.1 µM; in assay [8], 13.6 µM; in assay [9], 2.9 µM; in [10], 28.4 µM.

For `COc1cc[nH]c1/C=C1\C(=O)Nc2ccc(F)c(I)c21`, the GI50 in assay [1], in assay [2], in assay [3], in assay [4], in assay [5] and in [6] was over 25 µM each time. For the same molecule, the GI50 in [7], in assay [8], in assay [9] and in assay [10] was over 25 µM throughout. For the same molecule, the TGI in assay [1], in assay [2], in assay [3], in [4], in [5] and in [6] was over 25 µM in each case. Further, the TGI in [7], in assay [8], in assay [9] and in [10] was over 25 µM in each case.
